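The compound was tested at five concentrations on cells cultured in 96-well plates, with a 48-hour exposure period. GI50 = concentration required for 50% inhibition of growth. At the TGI there is no net growth.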
What was measured:
Assay in all cases: NCI anticancer screen, dose series, 48 h
CCRF-CEM leukemia = tested on: CCRF-CEM leukemia
DU-145 prostate = tested on: DU-145 prostate
HCC-2998 colon = tested on: HCC-2998 colon
HOP-62 NSCLC = tested on: HOP-62 NSCLC
MCF7 breast = tested on: MCF7 breast
NCI-H23 lung = tested on: NCI-H23 lung
SF-268 CNS = tested on: SF-268 CNS
SK-MEL-28 melanoma = tested on: SK-MEL-28 melanoma
SN12C renal = tested on: SN12C renal
U251 CNS = tested on: U251 CNS

Row | SMILES | TGI (CCRF-CEM leukemia) | TGI (DU-145 prostate) | TGI (HCC-2998 colon) | TGI (HOP-62 NSCLC) | TGI (MCF7 breast) | TGI (NCI-H23 lung) | TGI (SF-268 CNS) | TGI (SK-MEL-28 melanoma) | TGI (SN12C renal) | TGI (U251 CNS) | GI50 (CCRF-CEM leukemia) | GI50 (DU-145 prostate) | GI50 (HCC-2998 colon) | GI50 (HOP-62 NSCLC) | GI50 (MCF7 breast) | GI50 (NCI-H23 lung) | GI50 (SF-268 CNS) | GI50 (SK-MEL-28 melanoma) | GI50 (SN12C renal) | GI50 (U251 CNS)
1 | C[N+]1(CCC(=O)c2ccccc2)CCC2CCC(C2)C1 (stereo not drawn) | > 100 µM | > 100 µM | > 100 µM | > 100 µM | > 100 µM | > 100 µM | > 100 µM | > 100 µM | > 100 µM | > 100 µM |  |  |  |  |  |  |  |  |  | 
2 | CCOC(=O)c1c(-c2cccc(Cl)c2)c(C(=O)OC)c(C)c2sc(C=O)nc12 | 37 µM | 37.8 µM |  | 28.8 µM | 35.7 µM | > 100 µM | 38.6 µM | 34.5 µM | 30.8 µM | 32.2 µM |  |  |  |  |  |  |  |  |  | 
3 | O=C(Nc1ccc(-n2ccc3c(NC(=O)c4ccccc4)nccc32)cc1)Nc1cccc(C(F)(F)F)c1 | 5.55 µM | 14.8 µM | 22.4 µM | 19.1 µM | 24.8 µM | 17.6 µM | 30.2 µM | 21 µM | 27 µM | 10.8 µM | 1.27 µM | 4.2 µM | 7.46 µM | 5.65 µM | 6.61 µM | 3.28 µM | 10.5 µM | 7.36 µM | 13.4 µM | 2.04 µM
4 | O=C(/C=C1\N=C(c2ccccc2)N(c2nc3c(Cl)cc(Cl)cc3s2)C1=O)/C=C/c1ccccc1 | > 100 µM | > 100 µM | > 100 µM | > 100 µM | > 100 µM | > 100 µM | > 100 µM | > 100 µM | > 100 µM | > 100 µM |  |  |  |  |  |  |  |  |  | 
5 | N#Cc1ccccc1C#C/C=C\C#Cc1ccccc1N | > 100 µM | > 100 µM | 4.11 µM |  | > 100 µM | 29.2 µM | > 56.2 µM | > 74 µM | 12.5 µM | > 42.5 µM | 1.6 µM | 13.9 µM | 0.808 µM |  | 67.9 µM | 2.88 µM | 9.12 µM | 9.78 µM | 2.41 µM | 4.16 µM
6 | CC1=C[C@@H](C)C[C@]2(C)CC[C@H](O2)[C@]23CC[C@](CO)(C[C@H](O2)[C@@H]2O[C@@](C)(CC2=O)[C@@H](O)[C@H]2CC[C@@]4(CCC[C@@H](O4)[C@H](C)C(=O)O[C@H]4C[C@H]([C@]5(O)OCC[C@H](C)[C@@H]5O)O[C@H]4C=C1)O2)O3 | > 9.53 µM | > 10 µM | > 10 µM | 0.041 µM | > 10 µM |  | 0.0252 µM | 0.0391 µM | > 10 µM | 0.438 µM |  |  |  |  |  |  |  |  |  | 
7 | CN(C)C(=O)OC1=CC2CCC(C1)N2C (stereo not drawn) | > 100 µM | > 100 µM |  | > 100 µM | > 100 µM | > 100 µM | > 100 µM | > 100 µM | > 100 µM | > 100 µM |  |  |  |  |  |  |  |  |  | 
8 | CC(=O)Nc1ccc(C(=O)NN2C(=O)C(Cl)C2c2cccc([N+](=O)[O-])c2)cc1 (stereo not drawn) | > 100 µM |  | > 100 µM | > 100 µM |  | > 100 µM | > 100 µM | > 100 µM |  | > 100 µM |  |  |  |  |  |  |  |  |  | 
9 | CS(C)(=O)=Nn1c(=O)n2n(c1=O)C1c3ccccc3C2c2ccccc21 | > 100 µM | > 100 µM |  | > 100 µM | > 100 µM | > 100 µM |  | > 100 µM |  | > 100 µM |  |  |  |  |  |  |  |  |  | 
10 | COc1ccc(-c2nn(-c3ccc(NC(=O)c4cc(Cl)cc(Cl)c4)cc3)cc2-c2ccncc2)cc1Cl |  | > 100 µM | > 100 µM | > 100 µM | > 100 µM | > 100 µM | > 100 µM | > 100 µM | > 100 µM | > 100 µM |  | > 100 µM | > 100 µM | 8.12 µM | > 100 µM | > 100 µM | > 100 µM | > 100 µM | > 100 µM | 1.84 µM
11 | COC(=O)c1cc(NC(=O)c2cc(NC(=O)Cc3c[nH]c4ccccc34)cn2C)cn1C | > 100 µM | > 100 µM |  | > 100 µM | > 100 µM | 83.5 µM | > 100 µM | > 100 µM | > 100 µM |  |  |  |  |  |  |  |  |  |  | 
12 | Cc1ccc2nc(-c3ccc(NC(=O)c4ccc(N)cc4)c(S(=O)(=O)O)c3)sc2c1 | > 100 µM | > 100 µM | > 100 µM | > 100 µM | > 100 µM | > 100 µM | > 100 µM | > 100 µM | > 100 µM | > 100 µM |  |  |  |  |  |  |  |  |  | 
13 | COc1cccc(/C=N/[N-]C(N)=O)c1[O-].[Ni+2].[OH3+] | 1.48 µM |  | 1.02 µM | 2.52 µM |  | 0.735 µM | 0.945 µM | 1.72 µM | 1.49 µM | 0.816 µM |  |  |  |  |  |  |  |  |  | 
14 | Cc1oc(N)c(S(=O)(=O)c2cc3ccccc3n(O)c2=N)c1C |  | > 100 µM | > 100 µM | > 100 µM | > 100 µM | > 100 µM | > 100 µM | > 100 µM | > 100 µM | > 100 µM |  |  |  |  |  |  |  |  |  | 
15 | CCOCC(=O)N(C)c1cccc2c3c(n(C)c12)CCCCC3 | > 100 µM |  | > 100 µM | > 100 µM | > 100 µM | > 100 µM | > 100 µM | > 100 µM | > 100 µM | > 100 µM |  |  |  |  |  |  |  |  |  | 
16 | Cn1c2[n+](c3nc(N)[nH]c(=O)c31)C1OC(C2)C(O)C1O (stereo not drawn) | > 100 µM |  | > 100 µM | > 100 µM |  | > 100 µM | > 100 µM | > 100 µM | > 100 µM | > 100 µM |  |  |  |  |  |  |  |  |  | 
17 | COc1cc(C2c3cc4c(cc3[C@@H](Nc3ccc(Oc5ccccc5)cc3)C3COC(=O)[C@H]23)OCO4)cc(OC)c1O (stereo partly drawn) | 4.38 µM |  | 13.8 µM | 4.15 µM | > 37.1 µM | 6.68 µM | > 100 µM | > 100 µM | > 25.5 µM | > 27.9 µM |  |  |  |  |  |  |  |  |  | 
18 | O=C(CC(c1ccccc1)C1C(=O)NC(=S)NC1=O)c1ccc([N+](=O)[O-])cc1 (stereo not drawn) | > 100 µM | > 100 µM | > 100 µM | > 100 µM | 37.5 µM | > 100 µM | > 100 µM | > 100 µM | > 100 µM | > 100 µM |  |  |  |  |  |  |  |  |  | 
